The values below come from ChEMBL document CHEMBL1201862, “PubChem BioAssay data set” (2004).

What all share (assay): NCI-60 cell line screen, 48 h
Assay [1] deals with 786-0.
The subject of assay [2] is CCRF-CEM.
Assay [3] deals with HCT-116.
Assay [4] deals with HL-60.
Assay [5] relates to HOP-62.
Assay [6] has as its system HT-29.
Assay [7] deals with Hs-578T.
Assay [8] deals with LOX IMVI.
In assay [9] the test system is MDA-MB-231.
The subject of assay [10] is MDA-N.
The test system of assay [11] is NCI-H460.
For assay [12], the system named is NCI/ADR-RES.
Assay [13] concerns PC-3.
The subject of assay [14] is SN12C.
Assay [15] concerns SNB-19.
The test system of assay [16] is SR.
The subject of assay [17] is TK-10.
Assay [18] deals with OVCAR-4.
The subject of assay [19] is UACC-257.

The structures appear in SMILES notation. Structures can show the parent of a compound that is named as a salt.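 Results reflect a 48-hour exposure of cells in 96-well plates to compound at five concentrations. GI50 marks 50% less growth.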 Activity calls are given as the source filed them. No stated cut-off is given here; in the data, active = GI50 up to about 1.1 µM and inactive = higher. A value given as a limit tells only on which side of the number the result lay.

As to `Cc1ccc2c(O)cc(-c3csc4ccccc34)nc2n1`, the GI50 in [1] was < 0.01 µM (active); in [2], < 0.01 µM (active); in assay [3], < 0.0104 µM (active); in assay [4], < 0.01 µM (active); in assay [5], < 0.0138 µM (active); in assay [6], 0.0173 µM (active). Moreover, the GI50 in [7] is 0.0101 µM (active); in assay [8], < 0.0115 µM (active); in assay [9] it was 0.021 µM (active); in assay [10] it was < 0.01 µM (active); in assay [11], < 0.0161 µM (active); in assay [12] it was < 0.01 µM (active). Moreover, the GI50 in assay [13] is < 0.01 µM (active); in assay [14] it was 0.0323 µM (active); in assay [15], < 0.01 µM (active); in [16], < 0.01 µM (active); in assay [17] it was 0.484 µM (active).

As to `CSc1nc(SC)c2c(CN=[N+]=[N-])c(Br)n(Cc3ccccc3)c2n1`, the GI50 in assay [1] was > 100 µM (inactive); in assay [2], 72.6 µM (inactive); in assay [3], 45.6 µM (inactive); in [4] it was 62.1 µM (inactive); in [5], 92.3 µM (inactive); in [6], 23 µM (inactive). Also, the GI50 was 53.1 µM (inactive) in [7]; 66.1 µM (inactive) in [8]; 52.7 µM (inactive) in assay [9]; 99.3 µM (inactive) in assay [10]; > 100 µM (inactive) in assay [11]; > 100 µM (inactive) in assay [12]. Moreover, the GI50 in assay [18] is 76.7 µM (inactive); in assay [13] it was > 100 µM (inactive); in assay [14], > 100 µM (inactive); in assay [15], > 100 µM (inactive); in assay [16] it was 26 µM (inactive); in [17] it was > 100 µM (inactive).

Consider `Cc1ccc(/C=N/Nc2cc(C)c3cccc(C)c3n2)s1`, for which the GI50 in assay [1] is 2.74 µM (inactive); in [2], 4.43 µM (inactive); in [3], 2.82 µM (inactive); in assay [4], 3.28 µM (inactive); in [5], 11.8 µM (inactive); in assay [6], 2.86 µM (inactive). For the same compound, the GI50 was 13.9 µM (inactive) in assay [7]; 1.63 µM (inactive) in assay [8]; > 10 µM (inactive) in [9]; 8.89 µM (inactive) in [10]; 2.99 µM (inactive) in [12]; 13.9 µM (inactive) in [18]. Besides, the GI50 in assay [13] is 8.2 µM (inactive); in [14], 9.08 µM (inactive); in [15], 26.5 µM (inactive); in assay [16] it was 2.71 µM (inactive); in assay [17] it was 14.7 µM (inactive); in assay [19] it was 18.7 µM (inactive).

With `O=C1c2cc3c(cc2CC12Cc1cc4c(cc1C2=O)CCC4)CCCC3` (stereo unspecified), the GI50 was 76 µM (inactive) in assay [1]; > 100 µM (inactive) in [2]; > 100 µM (inactive) in assay [3]; > 100 µM (inactive) in assay [4]; > 100 µM (inactive) in [5]; > 100 µM (inactive) in [6]. In addition, the GI50 in assay [7], in assay [8], in assay [9], in [10], in assay [11] and in assay [12] was > 100 µM (inactive) throughout. For the same compound, the GI50 in assay [18], in assay [13], in [15], in [16], in assay [17] and in assay [19] was > 100 µM (inactive) throughout.

For `CCn1c2nc(=O)n(CCCCCCCCSC(c3ccccc3)(c3ccccc3)c3ccccc3)c(=O)c-2nc2ccccc21`, the GI50 in [1] is 14.6 µM (inactive); in assay [2], 1.43 µM (inactive); in assay [3], 3.7 µM (inactive); in assay [4], 0.181 µM (active); in assay [5] it was 27.5 µM (inactive); in [6], 2.74 µM (inactive). Also, the GI50 was 3.33 µM (inactive) in [7]; 53.5 µM (inactive) in assay [8]; 45.4 µM (inactive) in [9]; 7.14 µM (inactive) in assay [10]; 4.62 µM (inactive) in [11]; > 100 µM (inactive) in [12]. Further, the GI50 in assay [18] was 9.53 µM (inactive); in [13], 4.9 µM (inactive); in assay [16], 2.61 µM (inactive); in assay [17], 43.9 µM (inactive); in assay [19], 3.73 µM (inactive).

With `CN(/N=C\c1ccc2ccccc2c1)C1=NCCCCN1`, the GI50 is 15.8 µM (inactive) in [1]; 23.3 µM (inactive) in assay [2]; 24.9 µM (inactive) in assay [3]; 15.1 µM (inactive) in [4]; 19.2 µM (inactive) in [5]; 16.1 µM (inactive) in assay [6]. The GI50 in [7] was 20.6 µM (inactive); in assay [8] it was 13.6 µM (inactive); in [9] it was 21.9 µM (inactive); in assay [10] it was 16.3 µM (inactive); in assay [11], 17.2 µM (inactive); in [12] it was 26.7 µM (inactive). In addition, the GI50 in assay [18] is 30.2 µM (inactive); in assay [13], 16.7 µM (inactive); in assay [14] it was 18.5 µM (inactive); in [16], 21.2 µM (inactive); in assay [17] it was 20.2 µM (inactive); in [19], 16.4 µM (inactive).

For `CC(O)(Cc1ccccc1C#N)Cc1ccccc1C#N`, the GI50 is > 100 µM (inactive) in [1]; > 100 µM (inactive) in assay [3]; 4 µM (inactive) in assay [4]; > 100 µM (inactive) in [5]; > 100 µM (inactive) in assay [6]; > 100 µM (inactive) in assay [7]. The GI50 in [8] is > 100 µM (inactive); in assay [9], > 100 µM (inactive); in assay [10], > 100 µM (inactive); in assay [11] it was 73.6 µM (inactive); in [12], 27.9 µM (inactive); in assay [18], 54.2 µM (inactive). In addition, the GI50 in [13] is 71.3 µM (inactive); in assay [14], > 100 µM (inactive); in [15], > 100 µM (inactive); in assay [16], > 100 µM (inactive); in assay [17] it was > 100 µM (inactive); in assay [19], 89.7 µM (inactive).

As to `CC1C/C(=N\N(C)C)C(C#N)(C#N)C1(C#N)C#N` (stereo unspecified), the GI50 is 3.7 µM (inactive) in assay [1]; 0.91 µM (active) in [2]; 9.48 µM (inactive) in assay [3]; 0.857 µM (active) in [4]; 18 µM (inactive) in assay [5]; 6.53 µM (inactive) in assay [6]. The GI50 was 35.6 µM (inactive) in assay [7]; 7.14 µM (inactive) in assay [8]; 0.583 µM (active) in [9]; 17.8 µM (inactive) in assay [10]; 25.8 µM (inactive) in assay [12]; 12.6 µM (inactive) in assay [18]. Also, the GI50 in assay [13] is 20.8 µM (inactive); in [14], 19 µM (inactive); in assay [15], 31.7 µM (inactive); in assay [16], 2.82 µM (inactive); in assay [17], 13.6 µM (inactive); in [19], 13.2 µM (inactive).

Regarding `Brc1ccc(C2=NCSC(c3ccc(Br)cc3)=N2)cc1`, the GI50 in [1] is 10.7 µM (inactive); in [3], 16.6 µM (inactive); in assay [4], 11 µM (inactive); in assay [5], 39.1 µM (inactive); in assay [6], 27.4 µM (inactive); in assay [7], 44.1 µM (inactive). Also, the GI50 is 25.4 µM (inactive) in assay [8]; 68.9 µM (inactive) in assay [9]; 20.1 µM (inactive) in assay [10]; 18.4 µM (inactive) in assay [11]; 30.5 µM (inactive) in [12]; 41.9 µM (inactive) in [18]. The GI50 in assay [13] was 21.2 µM (inactive); in [14] it was 29.6 µM (inactive); in assay [15], 31.8 µM (inactive); in assay [16], 22.2 µM (inactive); in [17], 17.6 µM (inactive); in [19] it was 19.1 µM (inactive).

For `CN/C(=N\CCSCc1nc[nH]c1C)NC#N` [CIMETIDINE], the GI50 in assay [1], in [2], in assay [3], in [4], in assay [5] and in assay [6] was > 100 µM (inactive) throughout. Moreover, the GI50 in assay [7], in [8], in assay [9], in [10], in assay [11] and in assay [12] was > 100 µM (inactive) in each case. The GI50 in [18] was 99.5 µM (inactive); in assay [13], > 100 µM (inactive); in assay [14], > 100 µM (inactive); in assay [15], > 100 µM (inactive); in assay [16], > 100 µM (inactive); in [19], > 100 µM (inactive).

Take `CN1C[C@H](C(=O)N[C@]2(C)O[C@@]3(O)[C@@H]4CCCN4C(=O)[C@H](Cc4ccccc4)N3C2=O)C=C2c3cccc4[nH]cc(c34)C[C@H]21` [ERGOTAMINE TARTRATE]: the GI50 in assay [1] was 20 µM (inactive); in assay [2], 20 µM (inactive); in assay [3] it was 21 µM (inactive); in assay [4], 19.2 µM (inactive); in assay [5] it was 23.9 µM (inactive); in assay [6], 23.9 µM (inactive). Further, the GI50 in assay [7] is 10.2 µM (inactive); in assay [8] it was 15.5 µM (inactive); in assay [9] it was 19.2 µM (inactive); in assay [10], 18.5 µM (inactive); in assay [12], 26.3 µM (inactive); in assay [18], 20.7 µM (inactive). Further, the GI50 is 18.3 µM (inactive) in [13]; 20 µM (inactive) in assay [14]; 35.1 µM (inactive) in [15]; 16.1 µM (inactive) in assay [16]; 17.4 µM (inactive) in assay [17]; 13.9 µM (inactive) in assay [19].
